Data reported in patent US20240270740A1, “INHIBITORS OF CYCLIC GMP-AMP SYNTHASE AND USES THEREOF” (Ventus Therapeutics U.S., Inc., priority 2022, published 2024).

Legend:
hcGAS [1] = biological target: T1, hcGAS (Homo sapiens, UniProt Q8N884); assay: hcGAS LCMS assay (direct measurement of cGAMP production); assay type: biochemical; conditions: for IC50: 0.5 nM hcGAS, 100 μM ATP, 100 μM GTP, 25 nM dsDNA, 4 h incubation
Summary of the method: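 Direct LC/MS readout of cGAMP formed: 4-h enzyme–substrate incubation with compound, stopped by acetonitrile/water quench carrying isotope-labelled cGAMP (0.15 mM) as standard. Potency reported as IC50 ranges.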

hcGAS [2] = biological target: T1, hcGAS; assay: hcGAS Kinase-Glo assay (ATP depletion); assay type: biochemical; conditions: for IC50: 40 nM hcGAS, 100 μM ATP, 100 μM GTP, 25 nM dsDNA, 3 h incubation
Procedure: cGAS catalyzes the cyclization of ATP and GTP to produce cGAMP, which is the activating ligand of STING. Human cGAS (hcGAS) inhibition can thus be quantified by measuring how much cGAMP is formed either indirectly, by monitoring ATP-depletion as in the hcGAS Kinase-Glo assay (as described below), or directly, such as using the hcGAS LCMS assay (as described below).
(i) hcGAS Kinase-Glo Assay
Compounds were tested for their human-cGAS […] inhibition activity using the methodology reported in Lama et al., “Development of human cGAS-specific small molecule inhibitors for repression of dsDNA-triggered interferon expression”, Nature Communications 10, Article number: 2261 (2019), with slight changes to some conditions as shown in Table B.
The results of the assay, expressed in IC50 values, are reported in Table D with the following designations: A represents an IC50 value<0.01 μM; B represents an IC50 value≥0.01 μM and <0.03 μM; C represents an IC50 value≥0.03 μM and <0.1 μM; D represents an IC50 value≥0.1.

[3] = compared with Compound 103 (without —CH2OCH3)

T1 sequence (Q8N884 whole entry): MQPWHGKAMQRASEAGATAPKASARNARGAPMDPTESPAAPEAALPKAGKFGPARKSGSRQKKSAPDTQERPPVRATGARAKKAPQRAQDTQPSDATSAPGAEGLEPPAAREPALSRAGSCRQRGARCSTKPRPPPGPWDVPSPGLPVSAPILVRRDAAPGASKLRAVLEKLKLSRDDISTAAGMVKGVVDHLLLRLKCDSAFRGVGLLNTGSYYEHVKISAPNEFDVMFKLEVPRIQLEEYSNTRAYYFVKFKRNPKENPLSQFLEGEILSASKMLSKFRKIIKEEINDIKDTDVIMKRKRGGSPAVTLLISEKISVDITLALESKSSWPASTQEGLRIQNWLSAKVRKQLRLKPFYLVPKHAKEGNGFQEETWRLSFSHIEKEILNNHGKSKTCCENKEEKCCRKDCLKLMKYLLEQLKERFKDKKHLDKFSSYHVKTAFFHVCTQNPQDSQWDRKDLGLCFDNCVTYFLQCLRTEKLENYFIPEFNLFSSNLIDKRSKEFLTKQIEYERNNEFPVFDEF

Row | Compound | IC50 (hcGAS [1]) [nM] | IC50 (hcGAS [2]) [nM] | inhibitory activity in hcGAS LCMS assay (hcGAS [1]; [3]) | inhibitory activity in hcGAS Kinase glo assay (hcGAS [2]; [3])
1 | COc1c(N2CC[C@H](OC)C2)cc(C(=O)Nc2nnc(-n3nccc3C)s2)oc1=O [Compound 57, (S)-3-methoxy-4-(3-methoxypyrrolidin-1-yl)-N-(5-(5-methyl-1H-pyrazol-1-yl)-1,3,4-thiadiazol-2-yl)-2-oxo-2H-pyran-6-carboxamide] | 5 to 20 | 10 to 30 | – | –
2 | COCC(COC)Nc1cc(C(=O)Nc2nnc(-n3nccc3C)s2)oc(=O)c1OC [Compound 10, 4-((1,3-dimethoxypropan-2-yl)amino)-3-methoxy-N-(5-(5-methyl-1H-pyrazol-1-yl)-1,3,4-thiadiazol-2-yl)-2-oxo-2H-pyran-6-carboxamide] | 5 to 20 | 10 to 30 | – | –
3 | COCCNc1cc(C(=O)Nc2nnc(-c3c(Cl)ccn3C)s2)oc(=O)c1OC [Compound 127, N-(5-(3-chloro-1-methyl-1H-pyrrol-2-yl)-1,3,4-thiadiazol-2-yl)-3-methoxy-4-((2-methoxyethyl)amino)-2-oxo-2H-pyran-6-carboxamide] | < 5 | 10 to 30 | – | –
4 | COC[C@H](Nc1cc(C(=O)Nc2nnc(-n3nccc3C)s2)oc(=O)c1OC)c1ccccc1 [Compound 114, (R)-3-methoxy-4-((2-methoxy-1-phenylethyl)amino)-N-(5-(5-methyl-1H-pyrazol-1-yl)-1,3,4-thiadiazol-2-yl)-2-oxo-2H-pyran-6-carboxamide] | < 5 | < 10 | improved inhibitory activity | improved inhibitory activity
5 | COc1c(NC[C@@H](C)OC)cc(C(=O)Nc2nnc(-n3nccc3C)s2)oc1=O [Compound 119, (R)-3-methoxy-4-((2-methoxypropyl)amino)-N-(5-(5-methyl-1H-pyrazol-1-yl)-1,3,4-thiadiazol-2-yl)-2-oxo-2H-pyran-6-carboxamide] | 5 to 20 | 10 to 30 | – | –
6 | COc1c(N[C@H]2CC[C@H](OC)C2)cc(C(=O)Nc2nnc(-n3nccc3C)s2)oc1=O (racemic) [Rac-109, 3-methoxy-4-(((trans)-3-methoxycyclopentyl)amino)-N-(5-(5-methyl-1H-pyrazol-1-yl)-1,3,4-thiadiazol-2-yl)-2-oxo-2H-pyran-6-carboxamide] | 5 to 20 | 10 to 30 | – | –
7 | COCC(C)(C)Nc1cc(C(=O)Nc2nnc(-n3nccc3C)s2)oc(=O)c1OC [Compound 76, 3-methoxy-4-((1-methoxy-2-methylpropan-2-yl)amino)-N-(5-(5-methyl-1H-pyrazol-1-yl)-1,3,4-thiadiazol-2-yl)-2-oxo-2H-pyran-6-carboxamide] | 5 to 20 | 10 to 30 | – | –
8 | COc1c(N[C@H]2CC[C@@H](O)CC2)cc(C(=O)Nc2nnc(-n3nccc3C)s2)oc1=O [Compound 220] | 5 to 20 | 10 to 30 | – | –
9 | COc1c(N2CCCC2=O)cc(C(=O)Nc2nnc(-n3nccc3C)s2)oc1=O [Compound 42, 3-methoxy-N-(5-(5-methyl-1H-pyrazol-1-yl)-1,3,4-thiadiazol-2-yl)-2-oxo-4-(2-oxopyrrolidin-1-yl)-2H-pyran-6-carboxamide] | < 5 | < 10 | – | –
10 | COc1c(NC[C@@H]2CCCO2)cc(C(=O)Nc2nnc(-n3nccc3C)s2)oc1=O [Compound 66, (S)-3-methoxy-N-(5-(5-methyl-1H-pyrazol-1-yl)-1,3,4-thiadiazol-2-yl)-2-oxo-4-(((tetrahydrofuran-2-yl)methyl)amino)-2H-pyran-6-carboxamide] | 5 to 20 | 10 to 30 | – | –
11 | COc1c(NC23CC(C(C)(C)O)(C2)C3)cc(C(=O)Nc2nnc(-n3nccc3C)s2)oc1=O [Compound 117, 4-((3-(2-hydroxypropan-2-yl)bicyclo[1.1.1]pentan-1-yl)amino)-3-methoxy-N-(5-(5-methyl-1H-pyrazol-1-yl)-1,3,4-thiadiazol-2-yl)-2-oxo-2H-pyran-6-carboxamide] | 5 to 20 | 10 to 30 | – | –
12 | COc1c(NC23CC(CO)(C2)C3)cc(C(=O)Nc2nnc(-n3nccc3C)s2)oc1=O [Compound 218, 4-((3-(hydroxymethyl)bicyclo[1.1.1]pentan-1-yl)amino)-3-methoxy-N-(5-(5-methyl-1H-pyrazol-1-yl)-1,3,4-thiadiazol-2-yl)-2-oxo-2H-pyran-6-carboxamide] | – | 10 to 30 | – | –
13 | COCCN(CCOC)c1cc(C(=O)Nc2nnc(-n3nccc3C)s2)oc(=O)c1OC [Compound 63, 4-(bis(2-methoxyethyl)amino)-3-methoxy-N-(5-(5-methyl-1H-pyrazol-1-yl)-1,3,4-thiadiazol-2-yl)-2-oxo-2H-pyran-6-carboxamide] | – | ≥ 100 | – | –
14 | COc1c(N2CCC(O)CC2)cc(C(=O)Nc2nnc(-n3nccc3C)s2)oc1=O [Compound 46, 4-(4-hydroxypiperidin-1-yl)-3-methoxy-N-(5-(5-methyl-1H-pyrazol-1-yl)-1,3,4-thiadiazol-2-yl)-2-oxo-2H-pyran-6-carboxamide] | – | 10 to 30 | – | –
15 | COc1c(N[C@H]2COC[C@H]2O)cc(C(=O)Nc2nnc(-n3nccc3C)s2)oc1=O [Compound 113, 4-(((3S,4S)-4-hydroxytetrahydrofuran-3-yl)amino)-3-methoxy-N-(5-(5-methyl-1H-pyrazol-1-yl)-1,3,4-thiadiazol-2-yl)-2-oxo-2H-pyran-6-carboxamide] | – | 10 to 30 | – | –
16 | COc1c(N[C@H]2C[C@H](O)C2)cc(C(=O)Nc2nnc(-n3nccc3C)s2)oc1=O [Compound 16, 4-(((1,3-trans)-3-hydroxycyclobutyl)amino)-3-methoxy-N-(5-(5-methyl-1H-pyrazol-1-yl)-1,3,4-thiadiazol-2-yl)-2-oxo-2H-pyran-6-carboxamide] | – | 30 to 100 | – | –
17 | COc1c(N[C@H]2CCC[C@@H]2O)cc(C(=O)Nc2nnc(-n3nccc3C)s2)oc1=O (racemic) [Rac-15, 4-(((1S,2S)-2-hydroxycyclopentyl)amino)-3-methoxy-N-(5-(5-methyl-1H-pyrazol-1-yl)-1,3,4-thiadiazol-2-yl)-2-oxo-2H-pyran-6-carboxamide] | – | 30 to 100 | – | –

More lines, now with the values ahead:

Row | IC50 (hcGAS [1]) [nM] | IC50 (hcGAS [2]) [nM] | inhibitory activity in hcGAS LCMS assay (hcGAS [1]; [3]) | inhibitory activity in hcGAS Kinase glo assay (hcGAS [2]; [3]) | Compound
18 | 20 to 60 | 10 to 30 | – | – | COc1c(N[C@H]2CC[C@H](OC)CC2)cc(C(=O)Nc2nnc(-n3nccc3C)s2)oc1=O [Compound 11, 3-methoxy-4-(((1,4-trans)-4-methoxycyclohexyl)amino)-N-(5-(5-methyl-1H-pyrazol-1-yl)-1,3,4-thiadiazol-2-yl)-2-oxo-2H-pyran-6-carboxamide]
19 | 5 to 20 | 10 to 30 | – | – | COc1c(N2C[C@H](O)[C@H](OC)C2)cc(C(=O)Nc2nnc(-n3nccc3C)s2)oc1=O (racemic) [Rac-68, 4-((3S,4R)-3-hydroxy-4-methoxypyrrolidin-1-yl)-3-methoxy-N-(5-(5-methyl-1H-pyrazol-1-yl)-1,3,4-thiadiazol-2-yl)-2-oxo-2H-pyran-6-carboxamide]
20 | 5 to 20 | 30 to 100 | – | – | COc1c(N2CCCC2)cc(C(=O)Nc2nnc(-n3nccc3C)s2)oc1=O [Compound 216, 3-methoxy-N-(5-(5-methyl-1H-pyrazol-1-yl)-1,3,4-thiadiazol-2-yl)-2-oxo-4-(pyrrolidin-1-yl)-2H-pyran-6-carboxamide]
21 | 5 to 20 | 10 to 30 | – | – | COc1c(N2CC[C@H](S(C)(=O)=O)C2)cc(C(=O)Nc2nnc(-n3nccc3C)s2)oc1=O [Compound 60, (S)-3-methoxy-N-(5-(5-methyl-1H-pyrazol-1-yl)-1,3,4-thiadiazol-2-yl)-4-(3-(methylsulfonyl)pyrrolidin-1-yl)-2-oxo-2H-pyran-6-carboxamide]
22 | 5 to 20 | 30 to 100 | – | – | COc1c(NC(C)C)cc(C(=O)Nc2nnc(-n3nccc3C)s2)oc1=O [Compound 179, 4-(isopropylamino)-5-methoxy-N-[5-(5-methylpyrazol-1-yl)-1,3,4-thiadiazol-2-yl]-6-oxopyran-2-carboxamide]
23 | 5 to 20 | 10 to 30 | – | – | COC[C@H]1CCCN1c1cc(C(=O)Nc2nnc(-n3nccc3C)s2)oc(=O)c1OC [Compound 38, (R)-3-methoxy-4-(2-(methoxymethyl)pyrrolidin-1-yl)-N-(5-(5-methyl-1H-pyrazol-1-yl)-1,3,4-thiadiazol-2-yl)-2-oxo-2H-pyran-6-carboxamide]
24 | – | ≥ 100 | – | – | CCc1ccnn1-c1nnc(NC(=O)c2cc(NCCOC)c(OC)c(=O)o2)s1 [Compound 141, N-(5-(5-ethyl-1H-pyrazol-1-yl)-1,3,4-thiadiazol-2-yl)-3-methoxy-4-((2-methoxyethyl)amino)-2-oxo-2H-pyran-6-carboxamide]
25 | – | 30 to 100 | – | – | COc1c(N2CCC[C@@H]2CO)cc(C(=O)Nc2nnc(-n3nccc3C)s2)oc1=O [Compound 34, (R)-4-(2-(hydroxymethyl)pyrrolidin-1-yl)-5-methoxy-N-(5-(5-methyl-1H-pyrazol-1-yl)-1,3,4-thiadiazol-2-yl)-6-oxo-6H-pyran-2-carboxamide]
26 | – | 30 to 100 | – | – | COc1c(N2CCOCC2)cc(C(=O)Nc2nnc(-n3nccc3C)s2)oc1=O [Compound 186, 3-methoxy-N-(5-(5-methyl-1H-pyrazol-1-yl)-1,3,4-thiadiazol-2-yl)-4-morpholino-2-oxo-2H-pyran-6-carboxamide]
